# Data published in patent US12653776B2, “Methods of treatment of cancer by continuous infusion of coenzyme Q10” (priority 2013, dated 2026).
# Read-outs that look alike come from different tables or passages of the source.
# Columns and labels:
# [1] = test system: MIAPaCa-2 human pancreatic tumor cells; assay: Pancreatic cancer (MIAPaCa-2) mouse model, survival; type: in vivo, NOD scid gamma (NSG) mice
# Procedure: For example, FIG. 7 is a schematic describing a study investigating three different dosing regimens for coenzyme Q10 in an animal model of pancreatic cancer. The effect of coenzyme Q10 alone or in combination with gemcitabine on total survival in a preclinical mouse model of pancreatic cancer was evaluated.
# Equal numbers of MIAPaCa-2 human pancreatic tumor cells were suspended in […]® and injected into NOD scid gamma (NSG) mice. The NSG mouse model is devoid of innate and adaptive immune systems and provides a biological environment suitable for the growth of human tumors in vivo. The MIAPaCa-2 is a well established human derived pancreatic carcinoma cell line that can be used to establish pancreatic tumors in immunosuppressed animals. MIAPaca-2 tumors were allowed to develop for, on average, at least 3 weeks in mice prior to initiation of treatment. Animals with palpable tumors were randomized into treatment groups.
# The three treatment regimens utilized for the study included once/daily, twice/daily or thrice/daily dosing of coenzyme Q10 at either 50 mg/kg body weight (Regimen 1 & Regimen 2) or 50 mg/kg or 75 mg/kg body weight (Regimen 3) alone or in combination with a fixed dose of gemcitabine (150) mg/kg body weight). For example, mice treated twice/daily received two 50 mg/kg doses of coenzyme Q10, for a total of 100 mg/kg/day, and mice treated thrice daily received three 50 mg/kg doses of coenzyme Q10 for a total of 150 mg/kg/day. Each group of animals received chemotherapeutic treatment for a minimum of three cycles and was maintained to determine outcomes.
# Next, a continuous infusion protocol was implemented to determine the effect of constant coenzyme Q10 administration on survival in an animal model of pancreatic cancer. An infusion pump was surgically installed in the animals to facilitate continuous infusion of coenzyme Q10 at a dose of 25 mg/kg, 50 mg/kg or 100 mg/kg body weight per day. Treatment was continued throughout the entire duration of the study.
# [2] = test system: LnCaP human prostate adenocarcinoma cells; assay: Prostate cancer (LnCaP) mouse model, survival; type: in vivo, immunocompromised mice
# Procedure: The observed improvement in animal cohorts administered coenzyme Q10 as a continuous infusion was repeated in other animal models of cancer. For example. […] LnCaP human prostate adenocarcinoma cells were injected into immunocompromised mice. Coenzyme Q10 was administered using two different dosing regimens. One cohort was administered a total dose of 75 mg/kg body weight per day by dosing 25 mg/kg body weight every 8 hours (multiple bolus regimen). In a second cohort, an infusion pump was surgically installed in the animals to facilitate continuous infusion of coenzyme Q10 at a total dose of 75 mg/kg body weight per day. Treatment was continued throughout the entire duration of the study.
# [3] = test system: liver chloromas (MIA C51 clone); assay: Liver chloroma rat model, survival; type: in vivo, rats
# Text: (§1) The effect of dosing schedule of coenzyme Q10 was also investigated in rats bearing liver or lung chloromas. Rats were transplanted with liver or lung clones of malignant chloromas derived from a stable myelogenous leukemia (chloroleukemia) cell line, MIA C51 (see. e.g., Jimenez and Yunis (1987) Science 238: 1278-1280). The clones have been selected to home to and form tumors in the liver or lungs, respectively. Rats were randomized to receive either no treatment, injection 3 times a day with 40 mg/mL (4%) coenzyme Q10, or continuous infusion of 40 mg/mL (4%) coenzyme Q10 via an implanted pump, to deliver for each regimen a total dose of 50 mg/kg body weight per day. […] For example, at Day 189 in the liver chloroma model, 45 of 50 rats were alive in the continuous infusion treatment group compared with 26 of 50 rats alive in the injection treatment group. All control animals were dead at Day 30.
# [4] = test system: lung chloromas (MIA C51 clone); assay: Lung chloroma rat model, survival; type: in vivo, rats; settings: continuous infusion vs injection 3 times a day, 50 mg/kg per day
# Text: as §1
# [5] = in vivo
# Procedure: The first-in-human Phase 1 study with coenzyme Q10 nanosuspension (40 mg/ml) was conducted in 50 patients with advanced solid tumors. The objectives were to assess the safety, maximum tolerated dose, PK and PD of coenzyme Q10, specifically a 4% coenzyme Q10 nanosuspension formulation (as described in WO 2011/112900, the entire contents of which are expressly incorporated herein by reference), administered as a 4-hour IV infusion 3 times weekly in 28-day cycles. […] Plasma concentration profiles and PK parameters were determined from blood samples collected pre-dose and at intervals to 48 hours post-dose.
# advanced solid tumors = assay: First-in-human Phase 1 study (CTL0510), 4-hour IV infusion 3 times weekly: tumor response; type: in vivo
# Procedure: The first-in-human Phase 1 study with coenzyme Q10 nanosuspension (40 mg/ml) was conducted in 50 patients with advanced solid tumors. The objectives were to assess the safety, maximum tolerated dose, PK and PD of coenzyme Q10, specifically a 4% coenzyme Q10 nanosuspension formulation (as described in WO 2011/112900, the entire contents of which are expressly incorporated herein by reference), administered as a 4-hour IV infusion 3 times weekly in 28-day cycles. Nine dose levels were explored ranting from 5.62 to 139 mg/kg. Plasma concentration profiles and PK parameters were determined from blood samples collected pre-dose and at intervals to 48 hours post-dose.
# chloroleukemia (MIA C51) = settings: IP
substance,measurement,setting,value
coenzyme Q10,survival,"[1]; coenzyme Q10 alone, once/twice/thrice daily 50 mg/kg (or 75 mg/kg), vs untreated or chemotherapy alone",increase in survival
same,survival rates,[1]; coenzyme Q10 in combination with gemcitabine 150 mg/kg,higher survival rates than coenzyme Q10 alone or gemcitabine alone
same,survival rates,[1]; continuous infusion,higher survival rates than those treated with continuous infusion of 50 mg/kg or 25 mg/kg
same,survival rate,[1]; continuous infusion 25 mg/kg body weight per day vs 50 mg/kg three times per day,higher survival rate
same,animal survival,[1]; increasing 50 mg/kg doses from once/daily to three times per day,significant improvement in animal survival
same,survival rate,[2]; continuous infusion 75 mg/kg body weight per day vs multiple bolus regimen,even higher survival rate
same,survival rate,"[2]; multiple bolus regimen, total 75 mg/kg body weight per day (25 mg/kg every 8 hours)",higher survival rate than the untreated control
same,survival compared to control,"[3]; both continuous infusion and injection 3 times a day, 50 mg/kg per day",significantly prolonged survival
same,rats alive at Day 189,"[3]; continuous infusion of 40 mg/mL (4%) coenzyme Q10, 50 mg/kg body weight per day",45 of 50
same,effectiveness of continuous infusion regimen,"[3]; continuous infusion vs injection 3 times a day, 50 mg/kg per day",much more effective than the injection regimen
same,rats alive at Day 189,"[3]; injection 3 times a day of 40 mg/mL (4%) coenzyme Q10, total 50 mg/kg body weight per day",26 of 50
same,effectiveness of continuous infusion regimen,[4],much more effective than the injection regimen
same,Tmax and Cmax,[5]; human,generally associated with the end of the infusion
same,AUC0-168 (estimated weekly),"[5]; human, 176 mg/kg","68,787 μg*hr/mL"
same,Cmax (estimated weekly),"[5]; human, 176 mg/kg","1,558 μg/mL"
same,AUC0-168 (estimated weekly),"[5]; human, 235 mg/kg","74,640 μg*hr/mL"
same,Cmax (estimated weekly),"[5]; human, 235 mg/kg","1,592 μg/mL"
same,AUC0-168 (estimated weekly),"[5]; human, 313 mg/kg","125,953 μg*hr/mL"
same,Cmax (estimated weekly),"[5]; human, 313 mg/kg","2,198 μg/mL"
same,t1/2,"[5]; human, iv",2.18 to 18.0 h
same,accumulation with increasing duration of dosing,[5],no apparent accumulation
same,dose-proportionality,[5]; 22.5 mg/kg,dose-proportionality appeared linear
same,progressive disease,advanced solid tumors; 15 patients,30%
same,best response stable disease,advanced solid tumors; 23 of 50 patients,46%
same,partial response,advanced solid tumors; patient with a sarcoma,One
same,survival in animals with metastasis to the lungs and liver,chloroleukemia (MIA C51); 50 mg/kg/day,significant increase in survival
same,limb paralysis (paraplegia due to brain metastasis),chloroleukemia (MIA C51); (St) mg/kg/day,complete resolution of limb paralysis
